The record followed here is patent US9725465B2, “Biaryl acetamide compounds and methods of use thereof” (Ambit Biosciences Corporation, priority 2013, dated 2017).

Assay [1] has as its target FLT3-ITD (Homo sapiens (Human), UniProt P36888, INS600HVDFREYEYD). The assay can be described thus: pFLT3 MSD assay, Ba/F3 FLT3-ITD. To be noted: Ba/F3 FLT3-ITD cells, 2 hours, read-out: BaF3-FLT3-ITD pFlt3 IC50. The format is cell-based.
Assay [2] concerns the target FLT3 kinase (Homo sapiens (Human), UniProt P36888). The experiment in a line: Competition binding assay (Kd), FLT3. The conditions noted are these: competition binding assay.
For assay [3], the target named is KIT kinase (Homo sapiens (Human), UniProt P10721). The assay can be described thus: Competition binding assay (Kd), KIT. To be noted: competition binding assay. A digest of the protocol: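 Kinase, as T7 phage fusion or HEK-293-expressed DNA-tagged protein, competed off immobilised ligand beads by test compound (eleven-point threefold dilutions, from 100× DMSO stocks). Eluted kinase quantified by qPCR to derive Kd; DMSO used as control.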
Sequence of KIT kinase (P10721 26-976): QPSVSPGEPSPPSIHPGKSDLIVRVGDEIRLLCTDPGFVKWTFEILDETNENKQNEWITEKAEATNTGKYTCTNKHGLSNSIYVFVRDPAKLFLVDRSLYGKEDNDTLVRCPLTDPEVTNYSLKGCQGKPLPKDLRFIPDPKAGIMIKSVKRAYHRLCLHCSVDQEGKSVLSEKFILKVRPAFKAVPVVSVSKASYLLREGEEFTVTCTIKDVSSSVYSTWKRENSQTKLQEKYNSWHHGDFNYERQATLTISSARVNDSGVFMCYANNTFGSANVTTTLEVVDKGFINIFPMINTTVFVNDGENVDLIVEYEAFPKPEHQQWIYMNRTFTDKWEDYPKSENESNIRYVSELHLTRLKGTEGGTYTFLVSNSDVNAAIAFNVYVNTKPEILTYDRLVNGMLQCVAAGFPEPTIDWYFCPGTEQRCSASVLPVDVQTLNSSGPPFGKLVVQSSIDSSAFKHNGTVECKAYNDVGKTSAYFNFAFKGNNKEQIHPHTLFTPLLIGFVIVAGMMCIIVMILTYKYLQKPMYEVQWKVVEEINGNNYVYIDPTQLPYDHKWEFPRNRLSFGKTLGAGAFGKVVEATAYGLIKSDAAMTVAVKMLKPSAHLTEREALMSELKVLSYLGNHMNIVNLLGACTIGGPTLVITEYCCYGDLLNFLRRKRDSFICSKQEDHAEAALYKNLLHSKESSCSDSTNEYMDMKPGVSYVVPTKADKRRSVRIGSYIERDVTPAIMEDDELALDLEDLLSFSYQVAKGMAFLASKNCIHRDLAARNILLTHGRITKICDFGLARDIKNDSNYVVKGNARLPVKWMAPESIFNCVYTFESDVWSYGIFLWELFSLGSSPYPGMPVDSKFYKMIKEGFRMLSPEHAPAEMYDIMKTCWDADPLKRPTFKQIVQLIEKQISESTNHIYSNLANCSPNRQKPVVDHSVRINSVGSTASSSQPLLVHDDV

Sequence of FLT3-ITD (P36888 other isoform, or with tags, fused parts or gaps limits assumed, stated change not applied): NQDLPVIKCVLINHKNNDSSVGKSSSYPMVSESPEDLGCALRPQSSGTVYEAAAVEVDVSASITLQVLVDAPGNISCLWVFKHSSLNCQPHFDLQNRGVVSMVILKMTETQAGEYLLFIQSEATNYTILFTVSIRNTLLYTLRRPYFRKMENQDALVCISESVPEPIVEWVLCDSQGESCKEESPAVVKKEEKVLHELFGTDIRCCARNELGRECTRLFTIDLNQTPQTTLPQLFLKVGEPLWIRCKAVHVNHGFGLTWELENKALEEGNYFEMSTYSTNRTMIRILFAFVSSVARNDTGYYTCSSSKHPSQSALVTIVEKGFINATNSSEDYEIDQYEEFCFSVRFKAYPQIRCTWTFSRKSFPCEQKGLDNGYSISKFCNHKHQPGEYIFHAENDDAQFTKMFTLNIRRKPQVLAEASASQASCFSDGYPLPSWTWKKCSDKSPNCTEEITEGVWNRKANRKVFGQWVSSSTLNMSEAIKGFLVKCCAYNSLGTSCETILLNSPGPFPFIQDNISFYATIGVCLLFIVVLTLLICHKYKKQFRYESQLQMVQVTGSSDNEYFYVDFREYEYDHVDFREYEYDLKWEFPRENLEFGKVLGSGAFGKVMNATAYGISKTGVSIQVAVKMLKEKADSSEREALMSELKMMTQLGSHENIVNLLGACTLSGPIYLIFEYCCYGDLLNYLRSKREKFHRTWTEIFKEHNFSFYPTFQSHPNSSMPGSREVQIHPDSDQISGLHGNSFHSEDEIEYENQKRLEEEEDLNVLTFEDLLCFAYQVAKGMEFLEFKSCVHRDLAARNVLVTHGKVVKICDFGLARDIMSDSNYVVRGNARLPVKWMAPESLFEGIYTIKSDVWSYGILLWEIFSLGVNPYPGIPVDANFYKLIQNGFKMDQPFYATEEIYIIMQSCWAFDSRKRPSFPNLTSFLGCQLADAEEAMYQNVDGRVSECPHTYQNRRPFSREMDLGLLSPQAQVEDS
Sequence of FLT3 kinase (P36888 27-993): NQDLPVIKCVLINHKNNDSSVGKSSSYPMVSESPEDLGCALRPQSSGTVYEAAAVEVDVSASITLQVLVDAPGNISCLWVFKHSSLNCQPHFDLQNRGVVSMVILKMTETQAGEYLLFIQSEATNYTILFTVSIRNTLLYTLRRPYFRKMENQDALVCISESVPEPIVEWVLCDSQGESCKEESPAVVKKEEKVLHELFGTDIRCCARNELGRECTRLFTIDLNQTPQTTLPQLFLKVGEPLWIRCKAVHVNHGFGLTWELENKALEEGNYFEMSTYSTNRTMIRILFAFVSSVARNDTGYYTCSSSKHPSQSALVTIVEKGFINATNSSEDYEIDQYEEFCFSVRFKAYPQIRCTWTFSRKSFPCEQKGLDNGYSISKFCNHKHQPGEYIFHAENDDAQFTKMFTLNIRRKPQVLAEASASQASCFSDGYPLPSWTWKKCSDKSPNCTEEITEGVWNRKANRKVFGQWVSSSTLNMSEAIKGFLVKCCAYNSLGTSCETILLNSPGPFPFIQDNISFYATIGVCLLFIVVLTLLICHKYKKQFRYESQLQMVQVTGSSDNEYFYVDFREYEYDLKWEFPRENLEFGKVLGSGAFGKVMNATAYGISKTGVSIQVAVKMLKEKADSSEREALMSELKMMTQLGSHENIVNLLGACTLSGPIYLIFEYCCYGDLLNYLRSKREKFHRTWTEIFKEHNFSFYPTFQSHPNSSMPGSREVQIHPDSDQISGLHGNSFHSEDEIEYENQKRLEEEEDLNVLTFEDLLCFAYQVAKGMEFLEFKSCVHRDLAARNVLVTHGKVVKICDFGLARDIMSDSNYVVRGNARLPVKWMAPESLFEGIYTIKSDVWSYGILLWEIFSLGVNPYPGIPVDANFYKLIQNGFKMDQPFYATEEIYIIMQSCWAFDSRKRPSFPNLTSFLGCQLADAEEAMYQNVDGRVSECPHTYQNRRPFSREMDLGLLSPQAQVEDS

In general, IC50 refers to the concentration needed to halve the response being measured. As usually defined, the Kd is the concentration at which binding is half-saturated. Lower therefore signals a tighter complex. Take `COc1cc2ncc(-c3ccc(CC(=O)Nc4cc(C(C)(C)C(F)(F)F)on4)c(F)c3)nc2cc1OCCO` [Example 170, 2-[2-fluoro-4-[7-(2-hydroxyethoxy)-6-methoxy-quinoxalin-2-yl]phenyl]-N-[5-(2,2,2-trifluoro-1,1-dimethyl-ethyl)isoxazol-3-yl]acetamide]: the IC50 in assay [1] was less than 10 nM. Besides, the Kd in assay [2] and in assay [3] was less than 5 nM each time.
Turning to `COCCOc1cc2nc(-c3ccc(CC(=O)Nc4cc(C5(C(F)(F)F)CC5)on4)c(F)c3)cnc2cc1OC` [compound 77], in assay [1], the concentration for half-maximal inhibition (IC50) was less than 10 nM. In addition, the equilibrium dissociation constant (Kd) in assay [2] and in assay [3] was less than 5 nM each time.
